Measurements from patent US9617213B2, “Synthetic analogues of xanthohumol” (UNIVERSITA' DI PISA, priority 2013, dated 2017).
Read-outs that look alike come from different tables or passages of the source.

Key:
fibrosarcoma cells [1] = details: cited from earlier work
HUVEC cells [2] = test: Migration (chemotaxis) assay, Boyden chambers; assay type: cell-based, human; details: for reduction of endothelial cell migration: 10 μM, HUVEC pre-treated for 24 hours, values standardised on control, FIG. 7; for inhibition of migration: 24 hours' pre-treatment, 10 μM and 20 μM, *P<0.05, FIG. 2
Procedure: The chemotaxis assay was conducted with Boyden chambers [Albini A, Iwamoto Y, Kleinman H K, Martin G R, Aaronson S A, Kozlowski J M, McEwan R N. A rapid in vitro assay for quantitating the invasive potential of tumor cells. Cancer Res. 1987 Jun. 15; 47(12):3239-45; Albini A, Benelli R. The chemoinvasion assay: a method to assess tumor and endothelial cell invasion and its modulation. Nat Protoc. 2007; 2(3):504-11]. The HUVEC cells (5×10^4) were pre-treated for 24 hours with the inhibitors, resuspended in serum-free medium, and plated in the upper compartment of the Boyden chamber. The complete medium was added in the lower compartment of the chamber, and used as chemoattractant. The two chambers were separated by polycarbonate filters ([…]) coated with collagen (50 μg/mL). After 6 hours' incubation at 37° C., the filters were recovered, the cells present on the upper surface of the filter were mechanically removed, and those on the lower surface were fixed in absolute ethanol and stained with DAPI. The cells were then counted in eight consecutive fields on each filter by fluorescence microscopy.

HUVEC cells [3] = test: Invasion (chemoinvasion) assay, Boyden chambers, matrigel; assay type: cell-based, human; details: for reduction of endothelial cell invasion: 10 μM, HUVEC pre-treated for 24 hours, values standardised on control, FIG. 6; for invasion in the presence of serum (FBS): 24 hours' pre-treatment, even at 10 μM, *P<0.05, FIG. 3
Procedure: The chemoinvasion assay was conducted with Boyden chambers [Albini A, Iwamoto Y, Kleinman H K, Martin G R, Aaronson S A, Kozlowski J M, McEwan R N. A rapid in vitro assay for quantitating the invasive potential of tumor cells. Cancer Res. 1987 Jun. 15; 47(12):3239-45; Albini A, Benelli R. The chemoinvasion assay: a method to assess tumor and endothelial cell invasion and its modulation. Nat Protoc. 2007; 2(3):504-11]. The HUVEC cells (5×10^4) were pre-treated for 24 hours with the inhibitors, resuspended in serum-free medium, and plated in the upper compartment of the chamber. The complete medium was added in the lower compartment of the chamber, and used as chemoattractant. The 12 m polycarbonate filters were coated with matrigel (1 mg/mL). After 18 hours' incubation, the cells in the upper compartment of the chamber were mechanically removed, while those adhering to the lower surface of the filter were fixed in absolute ethanol and stained with DAPI. The cells were counted double-blind in eight consecutive fields by fluorescence microscopy.

[4] = tested on: hepatocarcinoma cell lines; details: 25 μM; cited from earlier work
hepatocytes = details: high concentrations (exceeding 100 μM); cited from earlier work
fibrosarcoma cells [5] = details: 10 μM; cited from earlier work
MMP-9 = MMP-9 (Homo sapiens, UniProt P14780); details: 10 μM; cited from earlier work
MMP-9, sequence (P14780 94-707, species assumed): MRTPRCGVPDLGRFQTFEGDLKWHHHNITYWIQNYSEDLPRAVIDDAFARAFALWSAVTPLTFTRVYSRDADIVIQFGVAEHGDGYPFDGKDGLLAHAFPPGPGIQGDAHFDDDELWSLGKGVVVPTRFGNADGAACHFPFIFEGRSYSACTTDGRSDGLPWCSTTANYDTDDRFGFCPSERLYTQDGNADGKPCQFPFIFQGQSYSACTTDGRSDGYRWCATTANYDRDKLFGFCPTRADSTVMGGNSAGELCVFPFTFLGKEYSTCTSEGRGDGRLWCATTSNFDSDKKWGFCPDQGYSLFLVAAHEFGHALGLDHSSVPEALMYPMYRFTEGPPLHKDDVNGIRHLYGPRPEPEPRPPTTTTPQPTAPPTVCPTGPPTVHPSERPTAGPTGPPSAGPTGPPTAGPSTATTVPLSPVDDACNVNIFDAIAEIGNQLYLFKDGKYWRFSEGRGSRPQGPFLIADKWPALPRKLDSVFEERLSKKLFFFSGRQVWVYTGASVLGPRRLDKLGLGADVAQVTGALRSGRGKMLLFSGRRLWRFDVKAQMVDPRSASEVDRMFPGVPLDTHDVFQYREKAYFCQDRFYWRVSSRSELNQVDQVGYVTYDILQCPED

MMP-2 = target: T1, MMP-2 (Homo sapiens, UniProt P08253); details: 10 μM; cited from earlier work
T1 sequence (P08253 110-660): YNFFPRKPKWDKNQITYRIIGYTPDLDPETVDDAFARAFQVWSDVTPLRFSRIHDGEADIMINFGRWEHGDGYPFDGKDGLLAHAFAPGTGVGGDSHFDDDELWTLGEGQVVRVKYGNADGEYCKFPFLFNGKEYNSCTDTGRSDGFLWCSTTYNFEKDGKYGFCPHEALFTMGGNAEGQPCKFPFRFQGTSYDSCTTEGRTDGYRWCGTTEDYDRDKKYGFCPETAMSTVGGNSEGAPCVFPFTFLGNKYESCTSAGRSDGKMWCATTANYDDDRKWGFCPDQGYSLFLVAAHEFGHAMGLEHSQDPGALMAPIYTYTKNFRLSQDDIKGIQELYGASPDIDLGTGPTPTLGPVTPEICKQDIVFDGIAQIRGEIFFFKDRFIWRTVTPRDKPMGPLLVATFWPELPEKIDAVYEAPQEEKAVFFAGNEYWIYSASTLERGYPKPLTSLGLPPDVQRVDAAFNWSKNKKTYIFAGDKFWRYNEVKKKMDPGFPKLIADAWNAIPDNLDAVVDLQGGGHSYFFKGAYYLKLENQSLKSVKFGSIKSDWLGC

endothelial cells [6] = details: cited from earlier work
endothelial cells [7] = details: cited from earlier work; remark: listed apart in the source
endothelial cells [8] = details: cited from earlier work; remark: listed apart in the source
[9] = tested on: prostate cancer cell lines; details: 40 μM; cited from earlier work
HUVEC cells [10] = test: MTT colorimetric viability assay; assay type: cell-based, human; details: for inhibition of cell growth: 20 μM, after 24 hours' treatment, FIG. 1
Procedure: The viability of the HUVEC cells was evaluated with the MTT colorimetric assay (3-(4,5-dimethylthiazol-2-yl)-2,5-diphenyltetrazolium bromide). The cells (1000/well) were plated in complete medium in 96-well plates, and after complete adherence the medium was replaced with a new medium with or without the various inhibitors at different concentrations. The plates were processed at different incubation times (24, 48, 72 and 96 hours), and the absorbance was measured at 570 nm.

HUVEC cells [11] = test: Morphogenesis on matrigel (capillary-like structures); assay type: cell-based, human; details: 24 hours' pre-treatment, FIG. 4
Procedure: A 24-well plate was coated with 300 μl/well of liquid matrigel (10 mg/mL) at 4° C., using cold pipettes and avoiding bubbles. The plate was then incubated for one hour at 37° C., until the matrigel polymerised. The HUVEC cells, pre-treated with the different inhibitors, were resuspended in 1 mL of complete medium and then plated in the different wells. The serum-free medium was used as negative control (CTRL−). After 6 hours' incubation, the organisation of the cells in capillary-like structures was examined with an inverted microscope equipped with a camera for the acquisition of images and a digital analysis system.

[12] = Apoptosis assay (Annexin V / 7-AAD cytofluorimetry); assay type: cell-based, human; details: human, HUVEC cells, FIG. 5, read-out: percentage of viability
Procedure: (§1) The HUVEC cells (1×10^5) were plated in six-well plates and left to adhere for 18 hours. The next day, the cells were pre-treated with inhibitors LR6 and LR7 (10 μM) in the presence of complete medium. After 24 hours, the cells were detached, washed with PBS and transferred to tubes for cytofluorimetric analysis. The cells were pelletted and resuspended in Annexin V-binding buffer (0.01M HEPES (4-(2-hydroxyethyl)-1-piperazineethanesulphonic acid) (pH 7.4); 0.14 M NaCl; 2.5 mM CaCl2. Fluorescein isothiocyanate Annexin V and 7-amino-actinomycin D were added to the tubes, and the cells were incubated for 15 minutes at room temperature in the dark. The cells were then washed in PBS, the supernatant was removed and the cells resuspended in […] of binding buffer. The samples were analysed on a FACSCanto cytofluorimeter (BD Biosciences), and analysed with FACSDiva Software 6.1.2.

HUVEC cells [13] = test: as above; assay type: cell-based, human; details: 10 μM, 24 hours, FIG. 5
Procedure: as §1

O-methylxanthohumol ether SEM [XN-SEM]
cytotoxic effect (fibrosarcoma cells [1]): no cytotoxic effect

COc1cc(O)c(CC=C(C)C)c(O)c1C(=O)/C=C/c1ccc(F)cc1F [LR19, (E)-3-(2,4-difluorophenyl)-1-[2,4-dihydroxy-6-methoxy-3-(3-methyl-but-2-enyl)-phenyl]-prop-2-en-1-one]
reduction of endothelial cell migration (HUVEC cells [2]): about 80%

COc1cc(O)c(CC=C(C)C)c(O)c1C(=O)/C=C/c1ccc(O)cc1 [XN, Xanthohumol]
reduction of endothelial cell migration (HUVEC cells [2]): about 50% | reduction of endothelial cell invasion (HUVEC cells [3]): about 60% | apoptosis [4]: induces apoptosis | viability of the hepatocytes (hepatocytes): no effect on the viability | invasion by fibrosarcoma cells (fibrosarcoma cells [5]): inhibits invasion | activity of MMP-9 (MMP-9): inhibits | activity of MMP-2 (MMP-2): strongly inhibited | cytotoxic activity against activated endothelial cells (endothelial cells [6]; 10 μM): potent cytotoxic activity | concentration at which cell death is observed (endothelial cells [6]): exceeding 25 μM | effect on endothelial cells at lower concentrations (endothelial cells [6]; concentrations lower than 10 μM, even after long exposure times): does not exhibit any significant effect | chemotaxis of the endothelial cells and invasion in vitro (endothelial cells [7]; 5 μM): inhibits chemotaxis | chemotaxis of the endothelial cells and invasion in vitro (endothelial cells [7]; 10 μM): complete inhibition | toxicity (endothelial cells [8]; 200 μM): no toxicity was observed | concentration interval in which effects on morphogenesis are evident (endothelial cells [8]): 5 to 10 µM | growth of prostate cancer cell lines [9]: inhibitory effect

COCOc1cc(OC)c(C(=O)/C=C/c2ccc(F)cc2F)c(OCOC)c1CC=C(C)C [LR17, (E)-3-(2,4-difluoro-phenyl)-1-[6-methoxy-2,4-dimethoxymethyloxy-3-(3-methyl-but-2-enyl)phenyl]-prop-2-en-1-one]
reduction of endothelial cell invasion (HUVEC cells [3]): ~75%

COCOc1cc(OC)c(C(=O)/C=C/c2ccc(F)cc2)c(O)c1CC=C(C)C [LR7, (E)-3-(4-fluorophenyl)-1-[2-hydroxy-6-methoxy-4-(methoxymethyloxy)-3-(3-methyl-but-2-enyl]-phenyl)prop-2-en-1-one]
inhibition of cell growth (HUVEC cells [10]): Significant inhibition of cell growth | cytostatic activity (HUVEC cells [10]; 10 and 20 μM, after 48 hours' incubation): exhibited cytostatic activity | inhibition of migration (HUVEC cells [2]): Significant inhibition of migration | invasion in the presence of serum (FBS) (HUVEC cells [3]): significantly reduces invasion | FBS-dependent morphogenesis (HUVEC cells [11]): interferes with FBS-dependent morphogenesis | viability at 24 h, 10 µM [12]: ~90% | apoptosis (HUVEC cells [13]): absence of apoptosis

COc1cc2c(c(O)c1C(=O)/C=C/c1ccc(O)cc1)C=CC(C)(C)O2 [XNC, xanthohumol C]
cytotoxic effect (fibrosarcoma cells [1]): loss of cytotoxic activity

COc1cc(O)c(CC=C(C)C)c(O)c1C(=O)/C=C/c1ccc(F)cc1 [LR6, (E)-1-[2,4-dihydroxy-6-methoxy-3-(3-methyl-but-2-enyl)prenyl]-3-(4-fluorophenyl)-prop-2-en-1-one]
cell proliferation (HUVEC cells [10]; 10 μM, after 72 and 96 hours' treatment): able to reduce cell proliferation | inhibition of cell growth (HUVEC cells [10]): Significant inhibition of cell growth | reduction of endothelial cell migration (HUVEC cells [2]): ~75% | inhibition of migration (HUVEC cells [2]): Significant inhibition of migration | invasion in the presence of serum (FBS) (HUVEC cells [3]): significantly reduces invasion | FBS-dependent morphogenesis (HUVEC cells [11]): interferes with FBS-dependent morphogenesis | viability at 24 h, 10 µM [12]: ~90% | apoptosis (HUVEC cells [13]): absence of apoptosis

COc1cc(O)c(CC=C(C)C)c(O)c1C(=O)/C=C/c1ccc(F)c(F)c1 [LR16, (E)-3-(3,4-difluorophenyl)-1-[2,4-dihydroxy-6-methoxy-3-(3-methyl-but-2-enyl)-phenyl]-prop-2-en-1-one]
reduction of endothelial cell invasion (HUVEC cells [3]): about 80%
